Reference: PubChem BioAssay AID1963849 (Molecular Pharmacology Branch, DTP, NCI, 2024)

Tested on: 299254-011-R-J1-PDC complex spheroid viability
Test: Anticancer human tumor 299254-011-R-J1-PDC patient-derived melanoma cell line growth inhibition [POLQ]
Conditions: for IC50: curve of first compound; for viability, T/C: stronger effect = lower value; active = viability on the fitted dose curve at most 10% of control; inactive = the rest
Outline: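 Patient-derived tumour cells were co-cultured with HUVEC and mesenchymal stem cells as multicellular spheroids at 37 °C. They were treated with POLQ inhibitors (novobiocin, ART-558, RP6685) alone or combined with other agents. Top concentrations were at or near clinical Cmax (otherwise 10 microM; SN-38 at 1 microM), decreasing in half-log steps.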

[1] = second compound 0.0316 µM, first compound 0.0316 µM
[2] = second compound 0.0316 µM, first compound 0.1 µM
[3] = second compound 0.0316 µM, first compound 0.316 µM
[4] = second compound 0.0316 µM, first compound 1 µM
[5] = second compound 0.0316 µM, first compound 3.16 µM
[6] = second compound 0.0316 µM, first compound 10 µM
[7] = second compound 0.1 µM, first compound 0.0316 µM
[8] = second compound 0.1 µM, first compound 0.1 µM
[9] = second compound 0.1 µM, first compound 0.316 µM
[10] = second compound 0.1 µM, first compound 1 µM
[11] = second compound 0.1 µM, first compound 3.16 µM
[12] = second compound 0.1 µM, first compound 10 µM
[13] = second compound 0.316 µM, first compound 0.0316 µM
[14] = second compound 0.316 µM, first compound 0.1 µM
[15] = second compound 0.316 µM, first compound 0.316 µM
[16] = second compound 0.316 µM, first compound 1 µM
[17] = second compound 0.316 µM, first compound 3.16 µM
[18] = second compound 0.316 µM, first compound 10 µM
[19] = second compound 1 µM, first compound 0.0316 µM
[20] = second compound 1 µM, first compound 0.1 µM
[21] = second compound 1 µM, first compound 0.316 µM
[22] = second compound 1 µM, first compound 1 µM
[23] = second compound 1 µM, first compound 3.16 µM
[24] = second compound 1 µM, first compound 10 µM
[25] = second compound 3.16 µM, first compound 0.0316 µM
[26] = second compound 3.16 µM, first compound 0.1 µM
[27] = second compound 3.16 µM, first compound 0.316 µM
[28] = second compound 3.16 µM, first compound 1 µM
[29] = second compound 3.16 µM, first compound 3.16 µM
[30] = second compound 3.16 µM, first compound 10 µM
[31] = second compound 10 µM, first compound 0.0316 µM
[32] = second compound 10 µM, first compound 0.1 µM
[33] = second compound 10 µM, first compound 0.316 µM
[34] = second compound 10 µM, first compound 1 µM
[35] = second compound 10 µM, first compound 3.16 µM
[36] = second compound 10 µM, first compound 10 µM
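Also: spheroids exposed to drugs for one week before measurement.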
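For viability, T/C in this document: percent viability relative to DMSO vehicle control taken as 100%.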

CCc1cc2c(N3CCc4c(cc(Cn5ccnc5)cc4-c4cn(C)nc4C(F)(F)F)C3=O)ccnc2c(OC)n1 + Cc1cccc(N(C)C(=O)C2C(O)CCN2c2nc(C)cc(C(F)(F)F)c2C#N)c1
> 10 µM: IC50 (second compound 0.0316 µM) | IC50 (second compound 0.1 µM) | IC50 (second compound 0.316 µM) | IC50 (second compound 1 µM) | IC50 (second compound 3.16 µM) | IC50 (second compound 10 µM)
inactive: viability, T/C [1] 97.6% | viability, T/C [2] 119% | viability, T/C [3] 98.9% | viability, T/C [4] 106% | viability, T/C [5] 109% | viability, T/C [6] 80.4% | viability, T/C [7] 98.7% | viability, T/C [8] 102% | viability, T/C [9] 99.7% | viability, T/C [10] 99.4% | viability, T/C [11] 99.1% | viability, T/C [12] 86.1% | viability, T/C [13] 98.5% | viability, T/C [14] 91.2% | viability, T/C [15] 116% | viability, T/C [16] 112% | viability, T/C [17] 84.2% | viability, T/C [18] 72.8% | viability, T/C [19] 110% | viability, T/C [20] 96.9% | viability, T/C [21] 113% | viability, T/C [22] 107% | viability, T/C [23] 91% | viability, T/C [24] 86% | viability, T/C [25] 106% | viability, T/C [26] 96.9% | viability, T/C [27] 101% | viability, T/C [28] 105% | viability, T/C [29] 95.5% | viability, T/C [30] 76.4% | viability, T/C [31] 94% | viability, T/C [32] 112% | viability, T/C [33] 105% | viability, T/C [34] 82.1% | viability, T/C [35] 75.7% | viability, T/C [36] 79%

COc1cc2cc(C(=O)CCC(=O)O)sc2cc1OC + Cc1cccc(N(C)C(=O)C2C(O)CCN2c2nc(C)cc(C(F)(F)F)c2C#N)c1
inactive: viability, T/C [1] 105% | viability, T/C [2] 102% | viability, T/C [3] 96.3% | viability, T/C [4] 113% | viability, T/C [5] 111% | viability, T/C [6] 109% | viability, T/C [7] 98.6% | viability, T/C [8] 96% | viability, T/C [9] 104% | viability, T/C [10] 101% | viability, T/C [11] 106% | viability, T/C [12] 101% | viability, T/C [13] 102% | viability, T/C [14] 115% | viability, T/C [15] 99.9% | viability, T/C [16] 110% | viability, T/C [17] 113% | viability, T/C [18] 104% | viability, T/C [19] 105% | viability, T/C [20] 109% | viability, T/C [21] 105% | viability, T/C [22] 112% | viability, T/C [23] 110% | viability, T/C [24] 103% | viability, T/C [25] 105% | viability, T/C [26] 116% | viability, T/C [27] 109% | viability, T/C [28] 95% | viability, T/C [29] 96.1% | viability, T/C [30] 97.4% | viability, T/C [31] 102% | viability, T/C [32] 95.5% | viability, T/C [33] 103% | viability, T/C [34] 102% | viability, T/C [35] 102% | viability, T/C [36] 101%
> 10 µM: IC50 (second compound 0.0316 µM) | IC50 (second compound 0.1 µM) | IC50 (second compound 0.316 µM) | IC50 (second compound 1 µM) | IC50 (second compound 3.16 µM) | IC50 (second compound 10 µM)
